Test results taken from PubChem BioAssay AID1259338 (Broad Institute, 2017).
Calls of active or inactive are those of the source.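 How the source made its calls: active means compounds lowering the signal with a fitted AC50 at or below a set concentration limit; inconclusive means flat curve with 30 to 70% inhibition, or a poor fit; inactive means the rest.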

These compounds were tested against Caspase recruitment domain-containing protein 9 (Homo sapiens) + E3 ubiquitin-protein ligase TRIM62 (Homo sapiens) (UniProt Q9H257+Q9BVG3) (assay: disruptors of CARD9-TRIM62 binding, dose response, cell lysate, HEK293FT lysates, Luminex bead readout (AID 1259338; on activity change, negative = inhibition: reference of the scale not given here)). Settings: Luminex bead PPI, MFI.
Sequence of Caspase recruitment domain-containing protein 9 (Homo sapiens) + E3 ubiquitin-protein ligase TRIM62 (Homo sapiens) (Q9BVG3 whole entry, looked up, the tested form may be a part): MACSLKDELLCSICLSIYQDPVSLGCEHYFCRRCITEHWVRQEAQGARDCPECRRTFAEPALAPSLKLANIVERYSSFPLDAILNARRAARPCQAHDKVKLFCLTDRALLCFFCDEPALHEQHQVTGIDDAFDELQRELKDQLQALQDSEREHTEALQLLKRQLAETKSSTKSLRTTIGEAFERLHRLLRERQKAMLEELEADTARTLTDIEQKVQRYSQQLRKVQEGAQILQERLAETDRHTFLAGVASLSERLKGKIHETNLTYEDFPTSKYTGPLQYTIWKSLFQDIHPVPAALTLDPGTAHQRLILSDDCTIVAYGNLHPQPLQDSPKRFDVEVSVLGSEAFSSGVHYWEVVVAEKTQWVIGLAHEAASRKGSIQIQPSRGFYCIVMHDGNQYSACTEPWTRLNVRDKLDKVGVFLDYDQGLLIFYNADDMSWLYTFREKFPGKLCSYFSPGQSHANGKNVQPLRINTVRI
Sequence of Caspase recruitment domain-containing protein 9 (Homo sapiens) + E3 ubiquitin-protein ligase TRIM62 (Homo sapiens) (Q9H257 whole entry, looked up, the tested form may be a part): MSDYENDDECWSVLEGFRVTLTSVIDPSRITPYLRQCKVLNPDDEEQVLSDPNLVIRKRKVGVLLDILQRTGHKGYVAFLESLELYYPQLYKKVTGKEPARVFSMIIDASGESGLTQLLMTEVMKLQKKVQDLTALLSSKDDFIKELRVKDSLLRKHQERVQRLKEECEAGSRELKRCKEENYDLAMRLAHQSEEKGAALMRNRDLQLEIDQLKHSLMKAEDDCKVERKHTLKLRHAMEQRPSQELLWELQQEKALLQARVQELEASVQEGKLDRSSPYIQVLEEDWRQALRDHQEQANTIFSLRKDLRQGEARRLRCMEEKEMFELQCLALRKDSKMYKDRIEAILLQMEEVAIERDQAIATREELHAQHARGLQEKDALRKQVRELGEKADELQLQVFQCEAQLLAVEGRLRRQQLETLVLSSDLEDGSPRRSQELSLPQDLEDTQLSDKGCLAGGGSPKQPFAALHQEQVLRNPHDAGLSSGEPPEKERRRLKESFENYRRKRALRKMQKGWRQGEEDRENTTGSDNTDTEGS

SMILES	AC50
NC(=O)C1(N2CCCCC2)CCN(c2ncc(NC(=O)c3cccc(Cl)c3)cc2C(=O)O)CC1	6.54 µM
Cc1cncc(-c2ccc(S(N)(=O)=O)cc2F)c1	53.4 µM
O=C1c2ccccc2-c2nc3ccccc3nc21	> 160 µM (inactive)
COc1c(C(=O)O)csc1Br	29.6 µM
CCCN1CCCn2nc(CNC(=O)[C@H]3CC[C@@H](N)C3)cc2C1	23 µM
c1cn(CCc2noc(C3CCCC3)n2)c(-c2cc3n(n2)CCCNC3)n1	53.7 µM
Cc1ccc(S(=O)(=O)Nc2ccc3c(c2)C(=O)N([C@H](C)CO)C[C@H](C)[C@@H](CN(C)C(=O)C2CCCCC2)OCCCC[C@H](C)O3)cc1	> 160 µM (inactive)
Cc1ccsc1[C@@H]1CCN(Cc2ccc(-c3ccn[nH]3)o2)C[C@H]1O	> 160 µM (inactive)
Cc1cccc2nc(CSCc3ccco3)cn12	> 160 µM (inactive)
O=C(COC(=O)c1ccc(F)cc1F)Nc1ncccn1	38.8 µM
COc1ccc(NC(=O)CN(C)C(=O)c2cc(-c3ccco3)nc3ccccc23)cc1	78.2 µM
O=S(=O)(c1ccccc1)N1CC2CN(Cc3ccc(O)cc3)C2C1 (centres undefined)	22.8 µM
O=C(Nc1nc(-c2ccccn2)cs1)c1cccc(-n2cnnn2)c1	77.9 µM
NC(=O)C1(N2CCCCC2)CCN(c2ncc(NC(=O)c3ccc(F)cc3)cc2C(=O)O)CC1	44.2 µM
CC(=O)c1ccc(NC(=O)c2noc3c2CCC3)cc1	> 160 µM (inactive)
NC(=O)C1(N2CCCCC2)CCN(c2ccc(NC(=O)c3cccc(Cl)c3)cc2C(=O)O)CC1	14.8 µM
Cc1ccc(N2NC(c3ccc(Br)cc3)=CCC2=O)cc1	50.9 µM
O=C(Cc1ccc(S(=O)(=O)N2CCOCC2)s1)Nc1nc2c(s1)CCCC2	> 160 µM (inactive)
O=C(Nc1nccs1)c1cc(-c2ccccn2)nc2c(Cl)cccc12	> 160 µM (inactive)
COc1ccc(S(=O)(=O)N2CCOCC2)cc1NC(=O)c1cccc(-n2cccc2)c1	77.6 µM
O=C(NCCc1ccccc1)c1cc2cccnc2n(Cc2ccccc2)c1=O	> 160 µM (inactive)

Same assay, conditions: Luminex bead PPI, MFI, at 38 µM (top of the series)

SMILES	activity change, negative = inhibition
COCCn1c(C)cc(-c2csc(N)n2)c1C	inactive
CCC12CCCN3CCc4c(n(c5ccccc45)C(O)(C(=O)OC)C1)C32 (centres undefined)	inactive

Same assay, conditions: Luminex bead PPI, MFI, at 80 µM (top of the series)

SMILES	activity change, negative = inhibition
Nc1cc2c(cc1O)CCCC2	inactive
O=[N+]([O-])c1ccc2cc[nH]c2c1	inactive
CCOC(=O)/C=C/S(=O)(=O)c1ccc(NC(C)=O)cc1	inactive
CC1Cc2ccccc2N1CC(=O)NC(=O)NC(C)(C)C (centres undefined)	inactive
CCNc1ncc(C(=O)NCCc2nc3c(s2)CCCC3)cn1	inactive
O=C1NC(c2ccc(Br)cc2)Nc2sc3c(c21)CCC3 (centres undefined)	inactive
COc1ccc(N2Cc3cccc(C(=O)NC(C)CCc4ccco4)c3C2=O)cc1 (centres undefined)	inactive
CCN1CCOC(=O)C1CC(=O)Nc1cccc(C)c1 (centres undefined)	inactive
O=C(CCN1CCOCC1)c1ccc2c(c1)OCCO2	inactive
O=C(Nc1ccon1)c1cc2cccnc2n(Cc2ccccc2)c1=O	inactive
Fc1ccc(CSc2nnc(-c3cccnc3)n2Cc2ccco2)cc1	inactive
Cc1nn2c(c1-c1ccccc1)NC(c1ccco1)=CC2c1ccco1 (centres undefined)	inactive
CC1(C)Cc2c(c(N3CCOCC3)nc3sc(C(=O)NCc4ccco4)c(N)c23)CO1	inactive
O=S(=O)(Nc1nccs1)c1ccc(-n2cccc2)cc1	inactive
C[C@H](CO)N1C[C@H](C)[C@@H](CN(C)C(=O)C2CCCCC2)OCCCC[C@H](C)Oc2ccc(NS(=O)(=O)c3ccc(Cl)cc3)cc2C1=O	inactive
Cc1ccc(-c2nc(C)sc2CC(=O)NCc2ccco2)cc1	inactive
CN(c1ccccc1C(=O)NCc1ccco1)S(C)(=O)=O	inactive
O=S(=O)(Nc1nc2ccc(S(=O)(=O)N3CCCCC3)cc2s1)c1ccccc1	inactive
O=C(COC(=O)c1ccc(S(=O)(=O)NCc2ccco2)cc1)Nc1ccc(Cl)cn1	inactive
CN(C)C(CN=C1NS(=O)(=O)c2ccccc21)c1ccco1 (centres undefined)	inactive
CCC1c2ccc(C)n2CCN1C(=O)Nc1ccccc1C(=O)OC (centres undefined)	inactive
N#Cc1c(-c2ccco2)cc(-c2cccnc2)nc1N	inactive
O=C(Cn1cncc1-c1ccc([N+](=O)[O-])cc1)Nc1ccccc1F	inactive
O=C(NC(Sc1ncccn1)C(=O)c1ccccc1)c1ccccc1 (centres undefined)	inactive
N#Cc1c(NC(=O)CSc2nc3ccccc3o2)sc2c1CCC2	inactive
Cn1cccc1CNCCCSc1ncccn1	inactive

SMILES	activity change, negative = inhibition
Cc1ccc(C)n1NC(=O)c1ccccc1O	inactive
CN1C(=O)C(c2ccccc2[N+](=O)[O-])C(=O)c2ccccc21 (centres undefined)	inactive
O=C(NCc1ccco1)[C@@H]1CSC2c3ccccc3C(=O)N21 (some centres undefined)	inactive
CCCCCn1c(NC(=O)c2ccco2)c(C(=O)OCC)c2nc3ccccc3nc21	inactive
N#Cc1c(-c2ccco2)cc(-c2ccccn2)nc1N	inactive
CCCC(=O)NCc1ccc2c(c1)cc(C)n2C	inactive
O=C(Nc1nc(-c2ccco2)c(-c2ccco2)s1)c1ccco1	inactive
O=c1oc(/C=C/c2ccc([N+](=O)[O-])s2)nc2ccccc12	inactive
CC1CCN(c2nc(-c3ccco3)c3c(c2C#N)CC(C)(C)OC3)CC1	inactive
O=C(O)Cc1c[nH]c2cccc(O)c12	inactive
O=C(N/N=C/C=C/c1ccco1)c1cncc(Br)c1	inactive
O=[N+]([O-])c1ccc2nn(Cc3ccccc3)cc2c1	inactive
COc1ccc(-c2nc(SCC(=O)N3CCN(c4ccccc4OC)CC3)n[nH]2)cc1	inactive
Cc1ccc(C2CC(=O)C3=C(C2)Nc2ccccc2NC3c2cccnc2)cc1 (centres undefined)	inactive
C[C@H](CO)N1C[C@H](C)[C@@H](CN(C)C(=O)C2CCCCC2)OCCCC[C@H](C)Oc2ccc(NS(=O)(=O)c3cccs3)cc2C1=O	inactive
C(=C\c1ccco1)/c1nc2ccccc2[nH]1	inactive
Cc1ccc(N2C(=O)c3ccccc3C2C(=O)c2ccc(O)cc2O)cc1 (centres undefined)	inactive
COc1ccc(-c2ccc(CCC(=O)O)o2)cc1	inactive
CC(C)(C)c1ccc(-c2nc(C#N)c(NCc3ccncc3)o2)cc1	inactive
Cc1scc(C(=O)NCc2ccco2)c1-c1ccccc1	inactive
Cc1oc(CSCc2cc(C(=O)O)c(C)o2)cc1C(=O)O	inactive
Cc1nc(C)c(C(=O)Nc2ncc([N+](=O)[O-])s2)o1	inactive
Cc1cc(C)c2c(N)c(C(=O)Nc3cccc4ccccc34)sc2n1	inactive
C[C@H](CO)N1C[C@H](C)[C@@H](CN(C)CC2CCCCC2)OCCCC[C@H](C)Oc2ccc(NS(=O)(=O)c3ccccc3)cc2C1=O	inactive
C(=N\n1cnnc1SCc1ccccc1)/c1ccco1	inactive
